According to US10358436B2, “Kinase inhibitors and method of treating cancer” (University Health Network, priority 2010, dated 2019):
Counter-ions that a name gives are not always drawn.

Target: Aurora A (Homo sapiens (Human), UniProt O14965)
Assay: Aurora A inhibition assay (Z-Lyte)
Type: biochemical

Chain of Aurora A (O14965 whole entry): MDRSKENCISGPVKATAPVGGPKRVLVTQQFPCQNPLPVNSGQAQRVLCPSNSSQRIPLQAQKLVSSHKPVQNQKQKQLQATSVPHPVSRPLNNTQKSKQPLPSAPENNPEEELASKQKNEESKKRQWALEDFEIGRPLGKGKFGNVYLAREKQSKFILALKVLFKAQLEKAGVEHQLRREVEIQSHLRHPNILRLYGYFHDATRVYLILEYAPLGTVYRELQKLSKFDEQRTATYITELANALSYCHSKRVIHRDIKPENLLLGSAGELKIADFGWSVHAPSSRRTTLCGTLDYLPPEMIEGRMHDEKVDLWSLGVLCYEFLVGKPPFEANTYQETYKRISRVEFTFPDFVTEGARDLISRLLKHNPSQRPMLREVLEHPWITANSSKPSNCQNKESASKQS

Compound `COc1ccc2c(c1)[C@]1(C[C@H]1c1ccc3c(-c4ccc(N(C)CCN(C)C)cc4)n[nH]c3c1)C(=O)N2` [Example A129, (1R,2S)-2-(3-(4-((2-(dimethylamino)ethyl)(methyl)amino)phenyl)-1H-indazol-6-yl)-5′-methoxyspiro[cyclopropane-1,3′-indolin]-2′-one 2,2,2-trifluoroacetate] has an inhibition at 1 µM of under 50%.

For `CN1CCc2cc(-c3n[nH]c4cc([C@@H]5C[C@@]56C(=O)Nc5ccccc56)ccc34)ccc2C1` [Example A76, (1R,2S)-2-(3-(2-methyl-1,2,3,4-tetrahydroisoquinolin-6-yl)-1H-indazol-6-yl)spiro[cyclopropane-1,3′-indolin]-2′-one 2,2,2-trifluoroacetate salt], the inhibition at 1 µM was under 50%.

In the case of `O=C1Nc2ccc(F)cc2[C@]12C[C@H]2c1ccc2c(I)n[nH]c2c1` (relative stereo) [Example A40, (1R*,2S*)-5′-fluoro-2-(3-iodo-1H-indazol-6-yl)spiro[cyclopropane-1,3′-indolin]-2′-one], the inhibition at 1 µM is reported as under 50%.

Work on `CCN(CC)Cc1c(F)cc(/C=C/c2n[nH]c3cc([C@@H]4C[C@@]45C(=O)Nc4ccccc45)ccc23)cc1F` [Example A221, (1R,2S)-(E)-2-(3-(4-((diethylamino)methyl)-3,5-difluorostyryl)-1H-indazol-6-yl)spiro[cyclopropane-1,3′-indolin]-2′-one 2,2,2-trifluoroacetate] yielded an inhibition at 1 µM of over 50%.

`COc1ccc2c(c1)[C@@]1(C[C@@H]1c1ccc3c(-c4ccc(N5CCNCC5)cc4)n[nH]c3c1)C(=O)N2` [Example A50, (1S,2R)-5′-methoxy-2-(3-(4-(piperazin-1-yl)phenyl)-1H-indazol-6-yl)spiro[cyclopropane-1,3′-indolin]-2′-one 2,2,2-trifluoroacetate] was tested, and the inhibition at 1 µM was under 50%.

`O=C1Nc2ccccc2[C@]12C[C@H]2c1ccc2c(/C=C/c3csc(CN4CCOCC4)c3)n[nH]c2c1` [Example A202, (1R,2S)-2-(3-((E)-2-(5-(morpholinomethyl)thiophen-3-yl)vinyl)-1H-indazol-6-yl)spiro[cyclopropane-1,3′-indolin]-2′-one 2,2,2-trifluoroacetate] showed an inhibition at 1 µM of over 50%.

In the case of `O=C1Nc2ncc(Br)cc2[C@]12C[C@H]2c1ccc2c(/C=C/c3cccnc3)n[nH]c2c1` (relative stereo) [Example A27, (1R*,2S*)-5′-bromo-2-(3-((E)-2-(pyridin-3-yl)vinyl)-1H-indazol-6-yl)spiro[cyclopropane-1,3′-pyrrolo[2,3-b]pyridin]-2′(1′H)-one], the inhibition at 1 µM is reported as under 50%.

With `COc1ccc2c(c1)[C@]1(C[C@H]1c1ccc3c(/C=C/c4cccc(CN(C)C)c4)n[nH]c3c1)C(=O)N2` (relative stereo) [Example A135, (1R*,2S*)-2-(3-(3-((dimethylamino)methyl)styryl)-1H-indazol-6-yl)-5′-methoxyspiro[cyclopropane-1,3′-indolin]-2′-one 2,2,2-trifluoroacetate] the inhibition at 1 µM was over 50%.

`CN1CCN(C(=O)c2ccc(-c3n[nH]c4cc([C@@H]5C[C@@]56C(=O)Nc5ccccc56)ccc34)cc2)CC1` (relative stereo) [Example A156, (1R*,2S*)-2-(3-(4-(4-methylpiperazine-1-carbonyl)phenyl)-1H-indazol-6-yl)spiro[cyclopropane-1,3′-indolin]-2′-one 2,2,2-trifluoroacetate] was tested, and the inhibition at 1 µM was under 50%.

`NS(=O)(=O)c1cccc(-c2n[nH]c3cc([C@@H]4C[C@@]45C(=O)Nc4ccccc45)ccc23)c1` (relative stereo) [Example A130, 3-(6-((1R*,2S*)-2′-oxospiro[cyclopropane-1,3′-indoline]-2-yl)-1H-indazol-3-yl)benzenesulfonamide] was tested, and the inhibition at 1 µM was under 50%.

`CCc1ccc2c(c1)[C@]1(C[C@H]1c1ccc3c(/C=C/c4ccc(CN(C)C)cc4)n[nH]c3c1)C(=O)N2` (relative stereo) [Example A167, (1R*,2S*)-(E)-2-(3-(4-((dimethylamino)methyl)styryl)-1H-indazol-6-yl)-5′-ethylspiro[cyclopropane-1,3′-indolin]-2′-one 2,2,2-trifluoroacetate] gave an inhibition at 1 µM of over 50%.

Compound `O=C1Nc2ccccc2[C@]12C[C@H]2c1ccc2c(/C=C/c3ccc(CN4CCCCC4)nc3)n[nH]c2c1` (relative stereo) [Example A63, (1R*,2S*)-(E)-2-(3-((E)-2-(6-(piperidin-1-ylmethyl)pyridin-3-yl)vinyl)-1H-indazol-6-yl)spiro[cyclopropane-1,3′-indolin]-2′-one 2,2,2-trifluoroacetate salt] has an inhibition at 1 µM of over 50%.

In the case of `O=C1Nc2ccccc2[C@]12C[C@H]2c1ccc2c(I)n[nH]c2c1` (relative stereo) [Example A9, (1R*,2S*)-2-(3-iodo-1H-indazol-6-yl)spiro[cyclopropane-1,3′-indolin]-2′-one], the inhibition at 1 µM is reported as under 50%.

`COc1ccc2c(c1)[C@]1(CC1c1ccc3c(/C=C/c4ccc(CN5CCCCC5)nc4)n[nH]c3c1)C(=O)N2` (mixture of isomers) [Example A62, (1R,2S)-(E)-5′-methoxy-2-(3-((E)-2-(6-(piperidin-1-ylmethyl)pyridin-3-yl)vinyl)-1H-indazol-6-yl)spiro[cyclopropane-1,3′-indolin]-2′-one 2,2,2-trifluoroacetate salt] showed an inhibition at 1 µM of over 50%.

In the case of `CN1CCC(Oc2ccc(/C=C/c3n[nH]c4cc([C@@H]5C[C@@]56C(=O)Nc5ccccc56)ccc34)cc2)CC1` [Example A78, (1R,2S)-(E)-2-(3-(4-(1-methylpiperidin-4-yloxy)styryl)-1H-indazol-6-yl)spiro[cyclopropane-1,3′-indolin]-2′-one 2,2,2-trifluoroacetate salt], the inhibition at 1 µM is reported as over 50%.

`COc1ccc2c(c1)[C@]1(C[C@H]1c1ccc3c(/C=C/c4ccc(CN5CC[C@@H](F)C5)cc4)n[nH]c3c1)C(=O)N2` [Example A112, (1R,2S)-(E)-2-(3-(4-(((R)-3-fluoropyrrolidin-1-yl)methyl)styryl)-1H-indazol-6-yl)-5′-methoxyspiro[cyclopropane-1,3′-indolin]-2′-one 2,2,2-trifluoroacetate] was tested, and the inhibition at 1 µM was over 50%.

For `CN1C(=O)[C@@]2(C[C@H]2c2ccc3c(/C=C/c4ccc(CN5CCOCC5)cc4)n[nH]c3c2)c2ccccc21` (relative stereo) [Example A87, (1R*,2S*)-(E)-1′-methyl-2-(3-(4-(morpholinomethyl)styryl)-1H-indazol-6-yl)spiro[cyclopropane-1,3′-indolin]-2′-one 2,2,2-trifluoroacetate], the inhibition at 1 µM was over 50%.

For `COc1ccc2c(c1)[C@]1(C[C@H]1c1ccc3c(-c4cccc(N5CCNCC5)c4)n[nH]c3c1)C(=O)N2` (relative stereo) [Example A47, (1R*,2S*)-5′-methoxy-2-(3-(3-(piperazin-1-yl)phenyl)-1H-indazol-6-yl)spiro[cyclopropane-1,3′-indolin]-2′-one 2,2,2-trifluoroacetate], the inhibition at 1 µM was under 50%.

In the case of `COc1ccc2c(c1)[C@]1(C[C@H]1c1ccc3c(-c4ccc(N5CCN(C6CCCCC6)CC5)cc4)n[nH]c3c1)C(=O)N2` [Example A193, (1R,2S)-2-(3-(4-(4-cyclohexylpiperazin-1-yl)phenyl)-1H-indazol-6-yl)-5′-methoxyspiro[cyclopropane-1,3′-indolin]-2′-one 2,2,2-trifluoroacetate], the inhibition at 1 µM is reported as under 50%.

With `COc1ccc2c(c1)[C@]1(C[C@H]1c1ccc3c(/C=C/c4ccc5c(c4)CNCC5)n[nH]c3c1)C(=O)N2` [Example A66, (1R,2S)-5′-methoxy-2-(3-((E)-2-(1,2,3,4-tetrahydroisoquinolin-7-yl)vinyl)-1H-indazol-6-yl)spiro[cyclopropane-1,3′-indolin]-2′-one 2,2,2-trifluoroacetate salt] the inhibition at 1 µM was over 50%.

In the case of `COc1ccc2c(c1)[C@]1(C[C@H]1c1ccc3c(-c4ccc(N5CC[C@@H](N(C)C)C5)cc4)n[nH]c3c1)C(=O)N2` [Example A127, (1R,2S)-2-(3-(4-((R)-3-(dimethylamino)pyrrolidin-1-yl)phenyl)-1H-indazol-6-yl)-5′-methoxyspiro[cyclopropane-1,3′-indolin]-2′-one 2,2,2-trifluoroacetate], the inhibition at 1 µM is reported as over 50%.

Work on `O=C1Nc2ccccc2[C@]12C[C@H]2c1ccc2c(/C=C/c3ccc(CN4CC[C@@H](F)C4)cc3)n[nH]c2c1` [Example A106, (1R,2S)-(E)-2-(3-(4-(((R)-3-fluoropyrrolidin-1-yl)methyl)styryl)-1H-indazol-6-yl)spiro[cyclopropane-1,3′-indolin]-2′-one 2,2,2-trifluoroacetate] yielded an inhibition at 1 µM of over 50%.

For `COc1ccc2c(c1)[C@]1(C[C@H]1c1ccc3c(/C=C/c4ccc(CN5CCCOCC5)cc4)n[nH]c3c1)C(=O)N2` [Example A73, (1R,2S)-(E)-2-(3-(4-((1,4-oxazepan-4-yl)methyl)styryl)-1H-indazol-6-yl)-5′-methoxyspiro[cyclopropane-1,3′-indolin]-2′-one 2,2,2-trifluoroacetate salt], the inhibition at 1 µM was over 50%.

With `CC(C)CCN1C(=O)[C@@]2(C[C@H]2c2ccc3c(/C=C/c4ccc(CN(C)C)cc4)n[nH]c3c2)c2ccccc21` (relative stereo) [Example A176, (1R*,2S*)-(E)-2-(3-(4-((dimethylamino)methyl)styryl)-1H-indazol-6-yl)-1′-isopentylspiro[cyclopropane-1,3′-indolin]-2′-one] the inhibition at 1 µM was over 50%.

For `NC(=O)CN1C(=O)[C@@]2(C[C@H]2c2ccc3c(/C=C/c4ccc(CN5CCCCC5)cc4)n[nH]c3c2)c2ccccc21` (relative stereo) [Example A165, 2-((1R*,2S*)-(E)-2′-oxo-2-(3-(4-(piperidin-1-ylmethyl)styryl)-1H-indazol-6-yl)spiro[cyclopropane-1,3′-indoline]-1′-yl)acetamide 2,2,2-trifluoroacetate], the inhibition at 1 µM was over 50%.

With `O=C1Nc2ccccc2[C@]12C[C@H]2c1ccc2c(/C=C/c3cc(F)c(CN4CCOCC4)c(F)c3)n[nH]c2c1` [Example A116, (1R,2S)-(E)-2-(3-(3,5-difluoro-4-(morpholinomethyl)styryl)-1H-indazol-6-yl)spiro[cyclopropane-1,3′-indolin]-2′-one 2,2,2-trifluoroacetate] the inhibition at 1 µM was over 50%.

`O=C1Nc2ccccc2[C@]12C[C@H]2c1ccc2c(/C=C/c3ccc(CN4CCCCC4)cc3)n[nH]c2c1` [Example A58, (1R,2S)-(E)-2-(3-(4-(piperidin-1-ylmethyl)styryl)-1H-indazol-6-yl)spiro[cyclopropane-1,3′-indolin]-2′-one 2,2,2-trifluoroacetate] was tested, and the inhibition at 1 µM was over 50%.
